{"source": "patent US20250163038A1", "about": "“CBL-B MODULATORS AND USES THEREOF” (Nimbus Clio, Inc., priority 2021, published 2025)", "data": [{"target": "Recombinant human Cbl-b (aa 36-427) (Homo sapiens, UniProt Q13191)", "sequence (Q13191 36-427)": "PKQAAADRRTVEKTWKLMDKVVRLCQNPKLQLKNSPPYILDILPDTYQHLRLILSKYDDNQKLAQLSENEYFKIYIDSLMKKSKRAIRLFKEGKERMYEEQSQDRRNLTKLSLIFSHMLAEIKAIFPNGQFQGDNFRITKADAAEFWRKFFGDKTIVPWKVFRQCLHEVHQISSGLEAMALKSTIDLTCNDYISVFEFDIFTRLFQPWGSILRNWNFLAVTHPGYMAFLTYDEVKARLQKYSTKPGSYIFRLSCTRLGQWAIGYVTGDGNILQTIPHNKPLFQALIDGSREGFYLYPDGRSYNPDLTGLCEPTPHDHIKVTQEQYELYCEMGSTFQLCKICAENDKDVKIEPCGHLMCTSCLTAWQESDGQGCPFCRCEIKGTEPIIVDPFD", "test": "Cbl-b Biochemical Assay (TR-FRET)", "conditions": "read-out: TR-FRET hCbl-b IC50", "units": {"IC50": "µM"}, "values": [{"smiles": "CC(Cc1nncn1C)c1cccc(-c2nc3ccc(C(=O)N4CCN(C)CC4)c(C(F)(F)F)c3[nH]2)c1", "note": "(racemic) [AY-5, (2-(3-(1-(4-Methyl-4H-1,2,4-triazol-3-yl)propan-2-yl)phenyl)-7-(trifluoromethyl)-1H-benzo[d]imidazol-6-yl)(4-methylpiperazin-1-yl)methanone]", "IC50": "10 to 50"}, {"smiles": "C=Cc1cc(C(F)(F)F)c2oc(-c3cccc(-c4ccc(F)cc4-c4nncn4C)c3)nc2c1", "note": "(racemic) [DL-1, 2-(4′-Fluoro-2′-(4-methyl-4H-1,2,4-triazol-3-yl)-[1,1′-biphenyl]-3-yl)-7-(trifluoromethyl)-5-vinylbenzo[d]oxazole]", "IC50": "0.2 to 1"}, {"smiles": "CCNc1cc(-c2c(-c3nncn3C)cnn2C)cc(-c2nc3cc(CN4CCC5(CC5)C4)cc(C(F)(F)F)c3o2)n1", "note": "[AAC-5, 6-(5-{5-Azaspiro[2.4]heptan-5-ylmethyl}-7-(trifluoromethyl)-1,3-benzoxazol-2-yl)-N-ethyl-4-[2-methyl-4-(4-methyl-1,2,4-triazol-3-yl)pyrazol-3-yl]pyridin-2-amine]", "IC50": "1 to 10"}, {"smiles": "C[C@@H]1CCCN(Cc2cc(C(F)(F)F)c3[nH]c(-c4cccc(-c5ccccc5-c5nncn5C)c4)nc3c2)C1", "note": "[AAJ-1, 2-[2′-(4-Methyl-1,2,4-triazol-3-yl)-[1,1′-biphenyl]-3-yl]-6-{[(3R)-3-methylpiperidin-1-yl]methyl}-4-(trifluoromethyl)-3H-1,3-benzodiazole]", "IC50": "1 to 10"}, {"smiles": "Cn1cnnc1CC1(c2cccc(-c3nc4cc(Br)cc(C(F)(F)F)c4o3)c2)COC1", "note": "[AAK-1, 5-Bromo-2-(3-(3-((4-methyl-4H-1,2,4-triazol-3-yl)methyl)oxetan-3-yl)phenyl)-7-(trifluoromethyl)benzo[d]oxazole]", "IC50": "0.2 to 1"}, {"smiles": "CCNc1cc(-c2c(-c3nncn3C)cnn2C)cc(-c2nc3cc(CN4CCC5(CC5)C4)cc(C(F)(F)F)c3[nH]2)n1", "note": "[AAM-2, 6-(6-{5-Azaspiro[2.4]heptan-5-ylmethyl}-4-(trifluoromethyl)-3H-1,3-benzodiazol-2-yl)-N-ethyl-4-[2-methyl-4-(4-methyl-1,2,4-triazol-3-yl)pyrazol-3-yl]pyridin-2-amine]", "IC50": "1 to 10"}, {"smiles": "Cn1cnnc1CC1(c2cccc(-c3nc4cc(Br)cc(C(F)(F)F)c4[nH]3)c2)COC1", "note": "[ABE-2, 5-Bromo-2-(3-(3-((4-methyl-4H-1,2,4-triazol-3-yl)methyl)oxetan-3-yl)phenyl)-7-(trifluoromethyl)-1H-benzo[d]imidazole]", "IC50": "10 to 50"}, {"smiles": "Cn1cnnc1CC1(c2cccc(-c3nc4c(C(F)(F)F)cccc4s3)c2)COC1", "note": "[ABF-4, 2-(3-[3-[(4-Methyl-1,2,4-triazol-3-yl)methyl]oxetan-3-yl]phenyl)-4-(trifluoromethyl)-1,3-benzothiazole]", "IC50": "10 to 50"}, {"smiles": "Cn1cnnc1CC1(c2cccc(-c3nc4cccc(C5CC5)c4[nH]3)c2)COC1", "note": "[ABG-3, 7-Cyclopropyl-2-(3-(3-((4-methyl-4H-1,2,4-triazol-3-yl)methyl)oxetan-3-yl)phenyl)-1H-benzo[d]imidazole]", "IC50": "10 to 50"}, {"smiles": "Cn1cnnc1CCc1cccc(-c2nc3cccc(C(F)(F)F)n3n2)c1", "note": "[ABI-7, 2-(3-(2-(4-Methyl-4H-1,2,4-triazol-3-yl)ethyl)phenyl)-5-(trifluoromethyl)-[1,2,4]triazolo[1,5-a]pyridine]", "IC50": "10 to 50"}, {"smiles": "Cn1cnnc1CC1(c2cccc(-c3nc4cccc(Cl)c4[nH]3)c2)COC1", "note": "[ABM-2, 7-Chloro-2-(3-(3-((4-methyl-4H-1,2,4-triazol-3-yl)methyl)oxetan-3-yl)phenyl)-1H-benzo[d]imidazole]", "IC50": "10 to 50"}, {"smiles": "Cn1cnnc1-c1cnn(C)c1-c1cccc(-c2nc3cccc(C(F)(F)F)n3n2)c1", "note": "[ABN-2, 4-Methyl-3-(1-methyl-5-{3-[5-(trifluoromethyl)-[1,2,4]triazolo[1,5-a]pyridin-2-yl]phenyl}pyrazol-4-yl)-1,2,4-triazole]", "IC50": "10 to 50"}, {"smiles": "Cn1cnnc1CC1(c2cccc(-c3nc4cccc(Br)c4[nH]3)c2)COC1", "note": "[ABP-2, 4-Bromo-2-(3-[3-[(4-methyl-1,2,4-triazol-3-yl)methyl]oxetan-3-yl]phenyl)-1H-1,3-benzodiazole]", "IC50": "10 to 50"}, {"smiles": "Cn1cnnc1CC1(c2cccc(-c3nc4cccc(OC(F)(F)F)c4[nH]3)c2)COC1", "note": "[ABQ-2, 2-(3-(3-((4-Methyl-4H-1,2,4-triazol-3-yl)methyl)oxetan-3-yl)phenyl)-7-(trifluoromethoxy)-1H-benzo[d]imidazole]", "IC50": "10 to 50"}, {"smiles": "Cn1cnnc1-c1ccccc1-c1cccc(-c2nc3cccc(C(F)(F)F)c3[nH]2)c1", "note": "[ABW-1, 2-(2′-(4-Methyl-4H-1,2,4-triazol-3-yl)-[1,1′-biphenyl]-3-yl)-7-(trifluoromethyl)-1H-benzo[d]imidazole]", "IC50": "10 to 50"}, {"smiles": "Cn1cnnc1CC1(c2cccc(-c3nc4cc(C(=O)Nc5nccn5C)cc(C(F)(F)F)c4[nH]3)c2)COC1", "note": "[ABZ-2, N-(1-Methyl-1H-imidazol-2-yl)-2-(3-(3-((4-methyl-4H-1,2,4-triazol-3-yl)methyl)oxetan-3-yl)phenyl)-7-(trifluoromethyl)-1H-benzo[d]imidazole-5-carboxamide]", "IC50": "10 to 50"}, {"smiles": "Cn1cnnc1-c1ccccc1-c1cccc(-c2nc3cc(C(=O)N4CCC5(CC5)C4)cc(C(F)(F)F)c3[nH]2)c1", "note": "[ACE-1, (2-(2′-(4-Methyl-4H-1,2,4-triazol-3-yl)-[1,1′-biphenyl]-3-yl)-7-(trifluoromethyl)-1H-benzo[d]imidazol-5-yl)(5-azaspiro[2.4]heptan-5-yl)methanone]", "IC50": "10 to 50"}, {"smiles": "Cn1cnnc1CC1(c2cccc(-c3cc(C(F)(F)F)cn(CCN4CC(O)C4)c3=O)c2)COC1", "note": "[ACH-5, 1-(2-(3-Hydroxyazetidin-1-yl)ethyl)-3-(3-(3-((4-methyl-4H-1,2,4-triazol-3-yl)methyl)oxetan-3-yl)phenyl)-5-(trifluoromethyl) pyridin-2(1H)-one]", "IC50": "10 to 50"}, {"smiles": "Cn1cnnc1CC1(c2cccc(-c3cc4cccc(C(F)(F)F)c4[nH]3)c2)COC1", "note": "[ACP-4, 2-(3-(3-((4-Methyl-4H-1,2,4-triazol-3-yl)methyl)oxetan-3-yl)phenyl)-7-(trifluoromethyl)-1H-indole]", "IC50": "10 to 50"}, {"smiles": "CCNc1cc(-c2c(-c3nncn3C)cnn2C)cc(-c2nc3ccc(Br)c(C(F)(F)F)c3[nH]2)n1", "note": "[ACT-3, 6-(6-Bromo-7-(trifluoromethyl)-1H-benzo[d]imidazol-2-yl)-N-ethyl-4-(1-methyl-4-(4-methyl-4H-1,2,4-triazol-3-yl)-1H-pyrazol-5-yl) pyridin-2-amine]", "IC50": "10 to 50"}, {"smiles": "CCNc1cc(-c2c(-c3nncn3C)cnn2C)cc(-c2nc3ccc(C)c(C(F)(F)F)c3[nH]2)n1", "note": "[ACV-5, N-Ethyl-4-(1-methyl-4-(4-methyl-4H-1,2,4-triazol-3-yl)-1H-pyrazol-5-yl)-6-(6-methyl-7-(trifluoromethyl)-1H-benzo[d]imidazol-2-yl) pyridin-2-amine]", "IC50": "10 to 50"}, {"smiles": "CCNc1cc(-c2c(-c3nncn3C)cnn2C)cc(-c2nc3cccc(C(F)(F)F)c3o2)n1", "note": "[ACW-2, N-Ethyl-4-(1-methyl-4-(4-methyl-4H-1,2,4-triazol-3-yl)-1H-pyrazol-5-yl)-6-(7-(trifluoromethyl)benzo[d]oxazol-2-yl)pyridin-2-amine]", "IC50": "10 to 50"}, {"smiles": "CCNc1cc(-c2ccccc2-c2nncn2C)cc(-c2nc3cccc(C(F)(F)F)c3o2)n1", "note": "[AS-12, N-ethyl-4-(2-(4-methyl-4H-1,2,4-triazol-3-yl)phenyl)-6-(7-(trifluoromethyl)benzo[d]oxazol-2-yl)pyridin-2-amine]", "IC50": "10 to 50"}, {"smiles": "Cn1cnnc1-c1ccccc1-c1cccc(-c2nc3ccc(Br)c(C(F)(F)F)c3[nH]2)c1", "note": "[BB-1, 6-Bromo-2-(2′-(4-methyl-4H-1,2,4-triazol-3-yl)-[1,1′-biphenyl]-3-yl)-7-(trifluoromethyl)-1H-benzo[d]imidazole]", "IC50": "10 to 50"}, {"smiles": "Cn1cnnc1-c1ccccc1-c1cccc(-c2nc3ccc(F)c(C(F)(F)F)c3[nH]2)c1", "note": "[BC-1, 6-Fluoro-2-(2′-(4-methyl-4H-1,2,4-triazol-3-yl)-[1,1′-biphenyl]-3-yl)-7-(trifluoromethyl)-1H-benzo[d]imidazole]", "IC50": "10 to 50"}, {"smiles": "CN1CCC(C(=O)Nc2ccc3nc(-c4cccc(-c5ccccc5-c5nncn5C)c4)[nH]c3c2C(F)(F)F)CC1", "note": "[BF-3, 1-Methyl-N-(2-(2′-(4-methyl-4H-1,2,4-triazol-3-yl)-[1,1′-biphenyl]-3-yl)-7-(trifluoromethyl)-1H-benzo[d]imidazol-6-yl)piperidine-4-carboxamide, Formic Acid]", "IC50": "10 to 50"}, {"smiles": "Cn1cnnc1-c1cc(F)ccc1-c1cccc(-c2nc3ccccc3[nH]2)c1", "note": "[CA-2, 2-(4′-Fluoro-2′-(4-methyl-4H-1,2,4-triazol-3-yl)-[1,1′-biphenyl]-3-yl)-1H-benzo[d]imidazole]", "IC50": "10 to 50"}, {"smiles": "Cn1cnnc1-c1ccccc1-c1cccc(-c2cc(C(F)(F)F)cn(C)c2=O)c1", "note": "[CG-4, 1-Methyl-3-(2′-(4-methyl-4H-1,2,4-triazol-3-yl)-[1,1′-biphenyl]-3-yl)-5-(trifluoromethyl)pyridin-2(1H)-one]", "IC50": "10 to 50"}, {"smiles": "Cn1cnnc1-c1ccccc1-c1cccc(-c2cc(C(F)(F)F)c(C(=O)O)[nH]c2=O)c1", "note": "[CH-3, 5-(2′-(4-methyl-4H-1,2,4-triazol-3-yl)-[1,1′-biphenyl]-3-yl)-6-oxo-3-(trifluoromethyl)-1,6-dihydropyridine-2-carboxylic Acid]", "IC50": "10 to 50"}]}, {"target": "T1, Recombinant human c-Cbl (aa 47-435) (Homo sapiens, UniProt P22681)", "T1 sequence (P22681 47-435)": "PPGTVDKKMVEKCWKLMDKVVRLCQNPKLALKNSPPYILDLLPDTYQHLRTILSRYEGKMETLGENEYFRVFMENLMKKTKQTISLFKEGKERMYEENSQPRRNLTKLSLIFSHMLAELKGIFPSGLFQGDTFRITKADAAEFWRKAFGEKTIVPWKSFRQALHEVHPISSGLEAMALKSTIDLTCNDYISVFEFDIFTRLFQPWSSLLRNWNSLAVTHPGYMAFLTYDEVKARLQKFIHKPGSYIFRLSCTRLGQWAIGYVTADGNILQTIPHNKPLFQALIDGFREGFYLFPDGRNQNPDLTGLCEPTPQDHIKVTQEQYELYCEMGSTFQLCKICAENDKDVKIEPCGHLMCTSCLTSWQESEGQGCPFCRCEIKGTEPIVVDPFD", "test": "c-Cbl Biochemical Assay (TR-FRET)", "conditions": "hc-Cbl Biochemical Assay (TR-FRET); read-out: TR-FRET hcCbl IC50", "units": {"IC50": "µM"}, "values": [{"smiles": "CC(Cc1nncn1C)c1cccc(-c2nc3ccc(C(=O)N4CCN(C)CC4)c(C(F)(F)F)c3[nH]2)c1", "note": "(racemic) [AY-5, (2-(3-(1-(4-Methyl-4H-1,2,4-triazol-3-yl)propan-2-yl)phenyl)-7-(trifluoromethyl)-1H-benzo[d]imidazol-6-yl)(4-methylpiperazin-1-yl)methanone]", "IC50": "10 to 50"}, {"smiles": "C=Cc1cc(C(F)(F)F)c2oc(-c3cccc(-c4ccc(F)cc4-c4nncn4C)c3)nc2c1", "note": "(racemic) [DL-1, 2-(4′-Fluoro-2′-(4-methyl-4H-1,2,4-triazol-3-yl)-[1,1′-biphenyl]-3-yl)-7-(trifluoromethyl)-5-vinylbenzo[d]oxazole]", "IC50": "1 to 10"}, {"smiles": "CCNc1cc(-c2c(-c3nncn3C)cnn2C)cc(-c2nc3cc(CN4CCC5(CC5)C4)cc(C(F)(F)F)c3o2)n1", "note": "[AAC-5, 6-(5-{5-Azaspiro[2.4]heptan-5-ylmethyl}-7-(trifluoromethyl)-1,3-benzoxazol-2-yl)-N-ethyl-4-[2-methyl-4-(4-methyl-1,2,4-triazol-3-yl)pyrazol-3-yl]pyridin-2-amine]", "IC50": "10 to 50"}, {"smiles": "C[C@@H]1CCCN(Cc2cc(C(F)(F)F)c3[nH]c(-c4cccc(-c5ccccc5-c5nncn5C)c4)nc3c2)C1", "note": "[AAJ-1, 2-[2′-(4-Methyl-1,2,4-triazol-3-yl)-[1,1′-biphenyl]-3-yl]-6-{[(3R)-3-methylpiperidin-1-yl]methyl}-4-(trifluoromethyl)-3H-1,3-benzodiazole]", "IC50": "10 to 50"}, {"smiles": "Cn1cnnc1CC1(c2cccc(-c3nc4cc(Br)cc(C(F)(F)F)c4o3)c2)COC1", "note": "[AAK-1, 5-Bromo-2-(3-(3-((4-methyl-4H-1,2,4-triazol-3-yl)methyl)oxetan-3-yl)phenyl)-7-(trifluoromethyl)benzo[d]oxazole]", "IC50": "10 to 50"}, {"smiles": "CCNc1cc(-c2c(-c3nncn3C)cnn2C)cc(-c2nc3cc(CN4CCC5(CC5)C4)cc(C(F)(F)F)c3[nH]2)n1", "note": "[AAM-2, 6-(6-{5-Azaspiro[2.4]heptan-5-ylmethyl}-4-(trifluoromethyl)-3H-1,3-benzodiazol-2-yl)-N-ethyl-4-[2-methyl-4-(4-methyl-1,2,4-triazol-3-yl)pyrazol-3-yl]pyridin-2-amine]", "IC50": "10 to 50"}, {"smiles": "N#CC1(CN)CCCC1", "note": "[AHN-1]", "IC50": "< 0.2"}]}]}
